The source of these data is PMC9029529, “Distinct Mechanisms of Cytotoxicity in Novel Nitrogenous Heterocycles: Future Directions for a New Anti-Cancer Agent” (Molecules, 2022).

Where two headings read alike, the source gives them in different places.

Series [1] deals with MDA-MB-231 cells. Put plainly: MTT assay, MDA-MB-231. In kind it is cell-based, human. The following applies: 0 to 250 μM, read-out: IC50 Breast Cancer (MDA-MB-231). The method, then:
(§1) To establish the cytotoxic effect of the nitrogenous derivatives, cells were treated with various concentrations of the drugs ranging from 0 to 250 μM. Following a 24 h incubation period, cell viability was assessed using the MTT assay. Mitoxantrone served as a positive control to evaluate growth inhibition. Since heterogeneity is a hallmark of cancer, the study included cell lines with diverse genomic and proteomic profiles. […] In this regard, further optimization would be required to increase the selective therapeutic potential of compound 9. To determine whether the anti-proliferative effect of the nitrogen derivatives could be translated to other malignancies, we tested the cytotoxic effect on the HCT8 (colorectal cancer) cell line. HCT8 is an adenocarcinoma driven by the Kirsten Rat Sarcoma (KRAS) mutation, unlike MCF-10A [28].
(§2) The MTT assay was utilized to examine the imidazole derivatives’ anti-proliferative activity against MCF-10A, MDA-MB-231, and HCT8 cell lines, purchased from ATCC, USA [47]. Firstly, 5 × 10^3 cells/well were seeded in a 96-well plate in 100 μL of growth medium and were subsequently cultured overnight with various concentrations of each compound ranging from 0 to 250 µM [48]. The media was aspirated, and 50 µL of serum-free media and 50 µL of MTT solution were added to each well. Next, cells were incubated at 37 °C for 3 h, then 150 µL of MTT solvent was added into each well. After that, plates were wrapped in foil and agitated for 15 min on an orbital shaker. Finally, the absorbance was measured within 1 h at OD590 nm. Half-maximal inhibitory concentration IC50 values (μM) were calculated for each compound from the dose–response curve. Experiments were performed in triplicates.

A further series has as its system MCF-10A cells. Nature of the series: MTT assay, MCF-10A. In kind it is cell-based, human. The following applies: for IC50: Homo sapiens, MCF-10A, 24 h, 0 to 250 μM, read-out: IC50 Non-Malignant Breast Epithelial Cells (MCF-10A). The method, then:
as §1, §2

Series [2] relates to HCT8 cells. Nature of the series: MTT assay, HCT8. The following applies: Homo sapiens, HCT-8, 24 h, 0 to 250 μM, read-out: IC50 Colorectal Cancer (HCT8). The series is classed as cell-based. The method, then: as §1, §2
The subject of another series is HL60 cells. Nature of the series: CellTiter-Glo assay, HL60. In kind it is cell-based, human. The following applies: read-out: IC50 Leukemia HL60. The method, then: (§3) To validate the anti-proliferative activity of the imidazole derivatives, the compounds were tested against several cancer cell lines, which included breast cancer (MDA-MB-231, KAIMRC1, and KAIMRC2), colorectal cancer (HCT8), and acute promyelocytic leukemia cells (HL60). KAIMRC1 was isolated from a person with stage II-B breast cancer and is ER+/PR+ and HER2-. In comparison, KAIMRC2 was isolated from a person with metastasized breast cancer and is a triple-negative (ER-/PR-, and HER2-) tumor cell line.
(§4) The CellTiter-Glo assay (Promega™, Madison, WI, USA) was used to evaluate imidazole and oxazolone derivatives cytotoxicity against various cancer cell lines; MCF-10A, HL60, MDA-MB-231, and HCT8, purchased from ATCC, USA, except KAIMRC1 and KAIMRC2, which were isolated, established, and characterized in the core laboratory facility KAIMRC, Riyadh, Saudi Arabia. The cells were seeded in white 96-well plates at a density of 5 × 10^3 cells/well in a 100 μL of growth medium with various concentrations of each compound ranging from 0 to 250 µM. Cells were incubated at 37 °C for 24 h. Plates were equilibrated at RT for 30 min. A quantity of 100 µL of CellTiter-Glo reagent was added to each well and mixed for 2 min on an orbital shaker. Plates were incubated for 10 min at RT before measuring the luminescence using an Envision plate reader (Perkin Elmer). Half-maximal inhibitory concentration IC50 values (μM) were calculated for each imidazole derivative from the dose–response curve. The cytotoxic effect at a concentration <10 µM was considered strongly active and from 11 to 100 µM was considered moderately active, whereas above 100 µM was deemed non-active. Mitoxantrone was utilized as a positive control. Experiments were performed in triplicates.

In series [3] the test system is MDA-MB-231 cells. Put plainly: CellTiter-Glo assay, MDA-MB-231. The note with it: Homo sapiens, 24 h, read-out: IC50 Breast Cancer MDA-MB-231. In kind it is cell-based. As to the method:
as §3, §4
(Cellular ATP, detected with luciferase, serves as a proxy for viable cell number.)

The test system of a further series is KAIMRC1 cells. Nature of the series: CellTiter-Glo assay, KAIMRC1. In kind it is cell-based. The following applies: Homo sapiens, 24 h, read-out: IC50 Breast Cancer KAIMRC1. The method, then: as §3, §4
The test system of another series is KAIMRC2 cells. Put plainly: CellTiter-Glo assay, KAIMRC2. In kind it is cell-based. The following applies: Homo sapiens, 24 h, read-out: IC50 Breast Cancer KAIMRC2. The method, then:
as §3, §4

Series [4] has as its system HCT8 cells. Nature of the series: CellTiter-Glo assay, HCT8. The series is classed as cell-based. The note with it: Homo sapiens, HCT-8, 24 h, read-out: IC50 Colorectal Cancer HCT8. As to the method: as §3, §4

For the molecule `COc1cccc(/C=C2\N=C(c3ccccc3)N(Nc3ccc([N+](=O)[O-])cc3[N+](=O)[O-])C2=O)c1` [Compound 9], the concentration for half-maximal inhibition (IC50) was 17 µM in the series with MDA-MB-231 cells [1] (Homo sapiens, MDA-MB-231, 24 h); 9.52 µM in the series on MCF-10A cells; 13.2 µM in the series with HCT8 cells [2]; 8.63 µM in the series with HL60 cells (24 h); 8.63 µM in the series with HL60 cells (Homo sapiens, HL-60, 24 h); 39.2 µM in the series with MDA-MB-231 cells [3]. Further, the IC50 with KAIMRC1 cells was 22.2 µM; with KAIMRC2 cells it was 27.1 µM; with HCT8 cells [4], 22.1 µM.
On to `O=C1/C(=C/c2ccccc2)N=C(c2ccccc2)N1Nc1ccc([N+](=O)[O-])cc1[N+](=O)[O-]` [Compound 8], for which the 50% inhibitory concentration (IC50) in the series on MDA-MB-231 cells [1] (24 h) is 4.76 µM; in the series with MDA-MB-231 cells [1] (Homo sapiens, MDA-MB-231, 24 h), 4.7 µM; with MCF-10A cells it was 30.7 µM; in the series on HCT8 cells [2] it was 29.5 µM; in the series on HL60 cells (24 h) it was 9.24 µM; in the series with HL60 cells (Homo sapiens, HL-60, 24 h), 9.23 µM. For the same molecule, the IC50 with MDA-MB-231 cells [3] was found to be 19 µM; in the series with KAIMRC1 cells, 10.2 µM; with KAIMRC2 cells, 31.6 µM; with HCT8 cells [4], 33.1 µM. Also, in the series on MCF-10A cells, the “IC50 in MCF-10A relative to MDA-MB231 (cytotoxic selectivity)” value is “six-fold higher”.

The IC50 is the concentration that gives 50% inhibition.
